# Experimental data reported in US20150258101A1 (Proximagen Limited, priority 2014, published 2015).
# Target: T1, purified recombinantly expressed human SSAO (Homo sapiens, UniProt Q16853)
# T1 construct: made in house
# T1 sequence (Q16853 1-763): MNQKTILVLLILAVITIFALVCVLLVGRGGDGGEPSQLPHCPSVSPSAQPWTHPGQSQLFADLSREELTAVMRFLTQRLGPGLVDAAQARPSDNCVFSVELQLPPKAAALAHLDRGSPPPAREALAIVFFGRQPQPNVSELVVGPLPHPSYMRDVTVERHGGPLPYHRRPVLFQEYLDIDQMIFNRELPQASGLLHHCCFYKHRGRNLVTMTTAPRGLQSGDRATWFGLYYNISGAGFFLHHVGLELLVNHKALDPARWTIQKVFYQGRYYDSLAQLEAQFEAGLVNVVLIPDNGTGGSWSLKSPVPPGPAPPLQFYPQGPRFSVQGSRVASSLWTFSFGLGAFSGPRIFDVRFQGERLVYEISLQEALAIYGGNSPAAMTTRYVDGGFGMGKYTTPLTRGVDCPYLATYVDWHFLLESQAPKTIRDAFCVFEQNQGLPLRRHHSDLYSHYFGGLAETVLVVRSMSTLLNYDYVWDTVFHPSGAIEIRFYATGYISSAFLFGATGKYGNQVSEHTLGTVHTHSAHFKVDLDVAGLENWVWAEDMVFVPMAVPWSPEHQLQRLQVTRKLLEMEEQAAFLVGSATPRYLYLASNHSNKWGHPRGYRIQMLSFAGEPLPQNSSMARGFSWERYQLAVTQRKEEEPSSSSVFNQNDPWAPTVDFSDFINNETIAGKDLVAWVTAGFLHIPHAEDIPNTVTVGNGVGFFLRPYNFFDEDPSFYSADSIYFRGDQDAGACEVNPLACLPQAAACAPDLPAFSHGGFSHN
# Assay: SSAO enzyme inhibition assay (benzylamine substrate; hydrogen peroxide/HRP-coupled or 14C aldehyde detection)
# Format: biochemical
# Conditions: SSAO inhibitory activity, RT
# Procedure: All primary assays were performed at RT. with purified recombinantly expressed human SSAO. Enzyme was prepared essentially as described in Öhman et al. (Protein Expression and Purification 46 (2006) 321-331). In addition, secondary- and selectivity assays were performed using SSAO prepared from various tissues or purified rat recombinant SSAO. The enzyme activity was assayed with benzylamine as substrate by measuring either benzaldehyde production, using ^14C-labeled substrate, or by utilizing the production of hydrogen peroxide in a horseradish peroxidase (HRP) coupled reaction. Briefly, test compounds were dissolved in dimethyl sulfoxide (DMSO) to a concentration of 10 mM. Dose-response measurements were assayed by either creating 1:10 serial dilutions in DMSO to produce a 7 point curve or by making 1:3 serial dilutions in DMSO to produce 11 point curves.
# In a horseradish peroxidase (HRP) coupled reaction, hydrogen peroxide oxidation of 10-acetyl-3,7-dihydroxyphenoxazine produced resorufin, which is a highly fluorescent compound (Zhout and Panchuk-Voloshina. Analytical Biochemistry 253 (1997) 169-174; Amplex® Red Hydrogen Peroxide/peroxidase Assay kit, Invitrogen A22188). Enzyme and compounds in 50 mM sodium phosphate, pH 7.4 were set to pre-incubate in flat-bottomed microtiter plates for approximately 15 min before initiating the reaction by addition of a mixture of HRP, benzylamine and Amplex reagent. Benzylamine concentration was fixed at a concentration corresponding to the Michaelis constant, determined using standard procedures. Fluorescence intensity was then measured at several time points during 1-2 h, exciting at 544 nm and reading the emission at 590 nm. For the human SSAO assay final concentrations of the reagents in the assay wells were: SSAO enzyme 1 ug/ml, benzylamine 100 uM, Amplex reagent 20 uM, HRP 0.1 U/mL and varying concentrations of test compound. The inhibition was measured as % decrease of the signal compared to a control without inhibitor (only diluted DMSO). The background signal from a sample containing no SSAO enzyme was subtracted from all data points. Data was fitted to a four parameter logistic model and IC50 values were calculated using the Graph Pad Prism 4 or XLfit 4 programs.
# SSAO activity was assayed using 14C-labeled benzylamine and analysed by measuring radioactive benzaldehyde. In a white 96-well optiplate (Packard), 20 uL of diluted test compound was pre-incubated at room temperature with 20 uL SSAO enzyme for approximately 15 min with continuous agitation. All dilutions were made with PBS. The reaction was initiated by adding 20 uL of the benzylamine substrate solution containing [7-14C] Benzylamine hydrochloride (CFA589, GE Healthcare). The plate was incubated for 1 h as above after which the reaction was stopped by acidification (10 uL 1M aq HCl). Then 90 uL Micro Scint-E solution (Perkin-Elmer) was added to each well and the plate was continuously mixed for 15 min. Phase separation occurred instantly and activity was read in a Topcount scintillation counter (Perkin-Elmer). In the final reaction well, the human recombinant SSAO concentration was 10 ug/ml. In order to optimize sensitivity, the substrate concentration was decreased as compared to the HRP coupled assay in order to get a higher fraction of radioactive product. In the human SSAO assay, benzylamine concentration was 40 uM (0.2 uCi/mL). Data was analysed as above.
row,Structure (SMILES),IC50 [nM]
1,"Nc1ncc(-c2nc3ccncc3n2-c2ccc(Cl)cc2)cn1 [Example 31, 5-[3-(4-Chlorophenyl)-3H-imidazo[4,5-c]pyridin-2-yl] pyrimidin-2-amine]",200 to 1200
2,"O=c1cc(-c2nc3ccncc3n2-c2ccc(Cl)cc2F)cc[nH]1 [Example 34, 4-[3-(4-Chloro-2-fluorophenyl)-3H-imidazo[4,5-c]pyridin-2-yl]-1,2-dihydropyridin-2-one]",50 to 200
3,"Cc1cc(N2CCOCC2)ncc1-c1nc2ccncc2n1-c1ccc(Cl)cc1F [Example 22, 4-{5-[3-(4-Chloro-2-fluorophenyl)-3H-imidazo [4,5-c]pyridin-2-yl]-4-methylpyridin-2-yl}morpholine]",< 50
4,"Cn1cncc1-c1cc2ccncc2n1-c1ccc(Cl)cc1 [Example 136, 5-[1-(4-Chlorophenyl)-1H-pyrrolo[2,3-c]pyridin-2-yl]-1-methyl-1H-imidazole]",< 50
5,"Clc1ccc(-n2c(-c3ccccn3)cc3ccncc32)cc1 [Example 121, 2-[1-(4-Chlorophenyl)-1H-pyrrolo[2,3-c]pyridin-2-yl]pyridine]",< 50
6,"O=c1cc(-c2cc3ccncc3n2-c2ccccc2)ccn1C1CC1 [Example 155, 1-Cyclopropyl-4-{1-phenyl-1H-pyrrolo[2,3-c]pyridin-2-yl}-1,2-dihydropyridin-2-one]",200 to 1200
7,"O=C(NC1CC1)c1ccc(-c2nc3ccncc3n2-c2ccc(Cl)cc2)cn1 [Example 14, 5-[3-(4-Chlorophenyl)-3H-imidazo[4,5-c]pyridin-2-yl]-N-cyclopropylpyridine-2-carboxamide]",200 to 1200
8,"Cc1ccc(-n2c(-c3cnc(NC4CCOCC4)nc3)nc3ccncc32)cc1 [Example 119, 5-[3-(4-Methylphenyl)-3H-imidazo[4,5-c]pyridin-2-yl]-N-(oxan-4-yl)pyrimidin-2-amine; bis(trifluoroacetic acid)]",50 to 200
9,"NC(=O)N1CCCN(c2ccc(-c3nc4ccncc4n3-c3ccc(F)cc3)cn2)CC1 [Example 94, 4-{5-[3-(4-Fluorophenyl)-3H-imidazo[4,5-c]pyridin-2-yl]pyridin-2-yl}-1,4-diazepane-1-carboxamide]",200 to 1200
10,"Clc1ccc(-n2c(-c3cccnc3)nc3ccncc32)cc1 [Example 1, 3-[3-(4-Chlorophenyl)-3H-imidazo[4,5-c]pyridin-2-yl]pyridine]",200 to 1200
11,"Fc1ccc(-n2c(-c3cnc(C4CC4)nc3)nc3ccncc32)cc1 [Example 30, 2-Cyclopropyl-5-[3-(4-fluorophenyl)-3H-imidazo [4,5-c]pyridin-2-yl]pyrimidine]",200 to 1200
12,"NC(=O)N1CCN(c2ncc(-c3nc4ccncc4n3-c3ccc(Cl)cc3)o2)CC1 [Example 93, 4-{5-[3-(4-Chlorophenyl)-3H-imidazo[4,5-c]pyridin-2-yl]-1,3-oxazol-2-yl}piperazine-1-carboxamide]",50 to 200
13,"Cc1cc(N2CCOCC2)nc(C)c1-c1nc2ccncc2n1-c1ccc(F)cc1 [Example 29, 4-{5-[3-(4-Fluorophenyl)-3H-imidazo[4,5-c]pyridin-2-yl]-4,6-dimethylpyridin-2-yl} morpholine]",200 to 1200
14,"Clc1ccc(-n2c(-c3cncc(Cl)c3)cc3ccncc32)cc1 [Example 150, 3-Chloro-5-[1-(4-chlorophenyl)-1H-pyrrolo[2,3-c]pyridin-2-yl]pyridine]",50 to 200
15,"Cc1ccc(-n2c(-c3cnc(N4C[C@@H](C)O[C@@H](C)C4)nc3)nc3ccncc32)cn1 [Example 118, (2R,6S)-2,6-Dimethyl-4-{5-[3-(6-methylpyridin-3-yl)-3H-imidazo[4,5-c]pyridin-2-yl]pyrimidin-2-yl}morpholine]",< 50
16,Clc1ccc(-n2c(-c3cncnc3)cc3ccncc32)cc1 [Example 123],< 50
17,"Cc1nc(N2CCOCC2)ncc1-c1nc2ccncc2n1-c1ccc(F)cc1 [Example 26, 4-{5-[3-(4-Fluorophenyl)-3H-imidazo[4,5-c]pyridin-2-yl]-4-methylpyrimidin-2-yl} morpholine]",50 to 200
18,"Cc1ccc(-n2c(-c3ccc(N4C[C@@H](C)O[C@@H](C)C4)nc3)nc3ccncc32)nc1 [Example 104, (2R,6S)-2,6-Dimethyl-4-{5-[3-(5-methylpyridin-2-yl)-3H-imidazo[4,5-c]pyridin-2-yl]pyridin-2-yl}morpholine]",< 50
19,"Nc1ccc(-c2nc3ccncc3n2-c2ccc(Cl)cc2F)cn1 [Example 105, 5-[3-(4-Chloro-2-fluorophenyl)-3H-imidazo[4,5-c]pyridin-2-yl]pyridin-2-amine]",200 to 1200
20,"c1cc2nc(-c3cnc(N4CCOCC4)nc3)n(-c3ccc(C4CC4)cc3)c2cn1 [Example 96, 4-{5-[3-(4-Cyclopropylphenyl)-3H-imidazo[4,5-c]pyridin-2-yl]pyrimidin-2-yl}morpholine]",50 to 200
21,"Cc1ccc(-n2c(-c3cnc(N4CCOCC4)nc3)nc3ccncc32)nc1 [Example 79, 4-{5-[3-(5-Methylpyridin-2-yl)-3H-imidazo[4,5-c]pyridin-2-yl]pyrimidin-2-yl}morpholine]",< 50
22,"Fc1cc(-n2c(-c3cnc(N4CCOCC4)nc3)nc3ccncc32)ccc1Cl [Example 74, 4-{5-[3-(4-Chloro-3-fluorophenyl)-3H-imidazo[4,5-c]pyridin-2-yl]pyrimidin-2-yl}morpholine]",200 to 1200
23,"Cc1cc(N2CCOCC2)ncc1-c1cc2ccncc2n1-c1ccc(Cl)cc1 [Example 129, 4-{5-[1-(4-Chlorophenyl)-1H-pyrrolo[2,3-c]pyridin-2-yl]-4-methylpyridin-2-yl}morpholine; bis(trifluoroacetic acid)]",< 50
24,"CN1CCN(c2ncc(-c3nc4ccncc4n3-c3ccc(F)cc3)cn2)CC1=O [Example 40, 4-{5-[3-(4-Fluorophenyl)-3H-imidazo[4,5-c]pyridin-2-yl]pyrimidin-2-yl}-1-methylpiperazin-2-one]",50 to 200
25,"Fc1ccc(-n2c(-c3ccnc(N4CCOCC4)c3)nc3ccncc32)cc1 [Example 73, 4-{4-[3-(4-Fluorophenyl)-3H-imidazo[4,5-c]pyridin-2-yl]pyridin-2-yl}morpholine]",50 to 200
26,"CN(C)c1ncc(-c2nc3ccncc3n2-c2ccc(Cl)cc2)cn1 [Example 72, 5-[3-(4-Chlorophenyl)-3H-imidazo[4,5-c]pyridin-2-yl]-N,N-dimethylpyrimidin-2-amine]",200 to 1200
27,"Clc1ccc(-n2c(-c3ccc(-n4cccn4)nc3)cc3ccncc32)cc1 [Example 151, 5-[1-(4-Chlorophenyl)-1H-pyrrolo[2,3-c]pyridin-2-yl]-2-(1H-pyrazol-1-yl)pyridine; bis(trifluoroacetic acid)]",50 to 200
28,"Cc1ccc(-n2c(-c3cnc(NCCOC(C)C)nc3)nc3ccncc32)cc1 [Example 39, 5-[3-(4-Methylphenyl)-3H-imidazo[4,5-c]pyridin-2-yl]-N-[2-(propan-2-yloxy)ethyl] pyrimidin-2-amine]",< 50
